Source: the OligoGym collection
HELM strings list units from the 5' end as sugar, base in round brackets, then linkage (d deoxyribose, r ribose, m 2'-O-methyl, p phosphodiester). Strings are as the collection lists them, not checked against the first reports. ss, as = sense and antisense strand; [lna] = locked nucleic acid (LNA); [una] = unlocked nucleic acid; [hna] = hexitol nucleic acid; [s4r] = 4'-thioribose; [fl2r] = 2'-fluoro

Settings: siRNA
Also: test system not given here.

Substance	target mRNA knockdown [%]
RNA1{r(G)p.r(A)p.r(C)p.r(G)p.[hna](U)p.r(A)p.r(A)p.[hna](A)p.r(C)p.r(G)p.[hna](G)p.r(C)p.r(C)p.[hna](A)p.r(C)p.r(A)p.r(A)p.r(G)p.r(U)p.[hna](U)p.d(T)}|RNA2{r(A)p.m(C)p.r(U)p.r(U)p.r(G)p.r(U)p.r(G)p.r(G)p.r(C)p.r(C)p.r(G)p.r(U)p.r(U)p.r(U)p.r(A)p.r(C)p.r(G)p.r(U)p.r(C)p.r(G)p.r(C)}$$$RNA1{StrandType:ss}|RNA2{StrandType:as}$	38
RNA1{r(A)p.m(U)p.r(A)p.r(C)p.r(U)p.r(U)p.r(G)p.r(G)p.r(C)p.r(G)p.r(G)p.r(G)p.r(C)p.r(U)p.r(C)p.r(U)p.r(U)p.r(U)p.r(C)p.r(T)p.r(T)}|RNA2{r(G)p.r(A)p.r(A)p.r(A)p.r(G)p.r(A)p.r(G)p.r(C)p.r(C)p.r(C)p.r(G)p.r(C)p.r(C)p.r(A)p.r(A)p.r(G)p.r(U)p.r(A)p.r(U)p.r(T)p.r(T)}$$$RNA1{StrandType:ss}|RNA2{StrandType:as}$	48
RNA1{r(C)p.r(C)p.r(C)p.r(U)p.r(C)p.r(C)p.r(C)p.r(C)p.[fl2r](U)p.r(G)p.r(U)p.r(C)p.r(C)p.r(C)p.r(C)p.r(G)p.r(C)p.r(U)p.r(U)p.r(T)p.r(T)}|RNA2{r(A)p.r(A)p.r(G)p.r(C)p.r(G)p.r(G)p.r(G)p.r(G)p.r(A)p.r(C)p.r(A)p.r(G)p.r(G)p.r(G)p.r(G)p.r(A)p.r(G)p.r(G)p.r(G)p.r(T)p.r(T)}$$$RNA1{StrandType:ss}|RNA2{StrandType:as}$	73
RNA1{r(U)p.r(C)p.r(U)p.r(C)p.r(G)p.m(U)p.m(A)p.r(A)p.r(G)p.r(G)p.r(A)p.r(C)p.r(G)p.r(A)p.m(A)p.r(A)p.m(C)p.r(G)p.r(A)p.r(T)p.r(T)}|RNA2{r(U)p.r(C)p.r(G)p.r(U)p.r(U)p.r(U)p.r(C)p.r(G)p.r(U)p.r(C)p.r(C)p.r(U)p.m(U)p.r(A)p.r(C)p.r(G)p.r(A)p.r(G)p.r(A)p.r(T)p.r(T)}$$$RNA1{StrandType:ss}|RNA2{StrandType:as}$	52
RNA1{r(A)p.r(G)p.r(A)p.r(G)p.r(U)p.r(U)p.r(G)p.r(G)p.r(G)p.r(A)p.r(U)p.r(U)p.r(A)p.r(G)p.r(G)p.r(G)p.r(C)p.r(U)p.r(U)p.r(T)p.r(T)}|RNA2{r(A)p.r(A)p.r(G)p.r(C)p.r(C)p.r(C)p.m(U)p.r(A)p.r(A)p.r(U)p.r(C)p.r(C)p.r(C)p.r(A)p.r(A)p.r(C)p.r(U)p.r(C)p.r(U)p.r(T)p.r(T)}$$$RNA1{StrandType:ss}|RNA2{StrandType:as}$	69
RNA1{[fl2r](A)p.r(U)p.r(C)p.[fl2r](G)p.[fl2r](A)p.r(C)p.r(C)p.r(U)p.[fl2r](G)p.[fl2r](A)p.[fl2r](A)p.[fl2r](G)p.[fl2r](G)p.[fl2r](A)p.[fl2r](G)p.r(U)p.[fl2r](A)p.r(C)p.[fl2r](G)p.r(T)p.r(T)}|RNA2{r(C)p.[fl2r](G)p.r(U)p.[fl2r](A)p.r(C)p.r(U)p.r(C)p.r(C)p.r(U)p.r(U)p.r(C)p.[fl2r](A)p.[fl2r](G)p.[fl2r](G)p.r(U)p.r(C)p.[fl2r](G)p.[fl2r](A)p.r(U)p.r(T)p.r(T)}$$$RNA1{StrandType:ss}|RNA2{StrandType:as}$	21
RNA1{m(U)p.r(A)p.r(A)p.r(A)p.r(G)p.r(C)p.m(U)p.r(G)p.r(G)p.r(A)p.r(A)p.r(A)p.r(G)p.r(G)p.r(G)p.r(A)p.r(C)p.r(G)p.r(G)p.r(T)p.r(T)}|RNA2{r(C)p.r(C)p.r(G)p.r(U)p.r(C)p.r(C)p.r(C)p.r(U)p.r(U)p.r(U)p.r(C)p.m(C)p.r(A)p.r(G)p.r(C)p.r(U)p.r(U)p.m(U)p.r(A)p.r(T)p.r(T)}$$$RNA1{StrandType:ss}|RNA2{StrandType:as}$	65
RNA1{m(U)p.r(A)p.r(G)p.r(C)p.r(C)p.r(A)p.r(G)p.r(A)p.r(G)p.r(C)p.r(C)p.r(A)p.r(A)p.r(A)p.r(G)p.r(A)p.r(A)p.r(G)p.r(C)p.r(T)p.r(T)}|RNA2{r(G)p.r(C)p.r(U)p.r(U)p.r(C)p.r(U)p.r(U)p.r(U)p.r(G)p.r(G)p.r(C)p.r(U)p.r(C)p.r(U)p.r(G)p.r(G)p.r(C)p.m(U)p.r(A)p.r(T)p.r(T)}$$$RNA1{StrandType:ss}|RNA2{StrandType:as}$	82
RNA1{r(A)p.r(A)p.r(A)p.r(C)p.r(C)p.r(C)p.r(C)p.[fl2r](U)p.r(A)p.r(G)p.r(A)p.r(G)p.r(G)p.[fl2r](G)p.r(C)p.r(A)p.r(A)p.r(G)p.r(U)p.r(T)p.r(T)}|RNA2{r(A)p.r(C)p.r(U)p.[fl2r](U)p.r(G)p.r(C)p.r(C)p.r(C)p.r(U)p.r(C)p.[fl2r](U)p.r(A)p.r(G)p.r(G)p.r(G)p.r(G)p.r(U)p.r(U)p.r(U)p.r(T)p.r(T)}$$$RNA1{StrandType:ss}|RNA2{StrandType:as}$	82
RNA1{m(A)p.r(G)p.m(U)p.r(U)p.m(A)p.r(A)p.m(C)p.r(C)p.m(C)p.r(G)p.m(G)p.r(G)p.m(A)p.r(C)p.m(U)p.r(U)p.m(G)p.r(G)p.m(A)p.r(T)p.r(T)}|RNA2{r(U)p.r(C)p.r(C)p.r(A)p.r(A)p.m(G)p.r(U)p.r(C)p.r(C)p.r(C)p.m(G)p.m(G)p.m(G)p.r(U)p.r(U)p.r(A)p.r(A)p.r(C)p.r(U)p.r(T)p.r(T)}$$$RNA1{StrandType:ss}|RNA2{StrandType:as}$	45
RNA1{r(C)p.r(C)p.r(C)p.r(U)p.r(C)p.r(C)p.r(C)p.r(C)p.[fl2r](U)p.r(G)p.r(U)p.r(C)p.r(C)p.r(C)p.r(C)p.r(G)p.[fl2r](C)p.r(U)p.r(U)p.r(T)p.r(T)}|RNA2{r(A)p.r(A)p.r(G)p.r(C)p.r(G)p.r(G)p.r(G)p.r(G)p.r(A)p.[fl2r](C)p.r(A)p.r(G)p.r(G)p.r(G)p.r(G)p.r(A)p.r(G)p.r(G)p.r(G)p.r(T)p.r(T)}$$$RNA1{StrandType:ss}|RNA2{StrandType:as}$	72
RNA1{[lna](T)p.r(G)p.r(A)p.r(G)p.r(A)p.r(G)p.r(A)p.r(A)p.r(A)p.r(G)p.r(C)p.r(A)p.r(C)p.r(A)p.r(G)p.r(A)p.r(A)p.r(A)p.r(A)p.[lna](T)p.[lna](T)}|RNA2{r(U)p.r(U)p.r(U)p.r(U)p.r(C)p.r(U)p.r(G)p.r(U)p.r(G)p.r(C)p.r(U)p.r(U)p.r(U)p.r(C)p.r(U)p.r(C)p.r(U)p.r(C)p.r(A)p.d(T)p.d(T)}$$$RNA1{StrandType:ss}|RNA2{StrandType:as}$	70
RNA1{r(C)p.r(U)p.r(U)p.r(A)p.r(C)p.r(G)p.r(C)p.r(U)p.r(G)p.r(A)p.r(G)p.r(U)p.r(A)p.r(C)p.r(U)p.r(U)p.r(C)p.r(G)p.r(A)p.r(T)p.r(T)}|RNA2{r(T)p.r(C)p.r(G)p.[lna](A)p.r(A)p.r(G)p.r(U)p.r(A)p.r(C)p.r(U)p.r(C)p.r(A)p.r(G)p.r(C)p.r(G)p.r(U)p.r(A)p.r(A)p.r(G)p.[lna](T)p.[lna](T)}$$$RNA1{StrandType:ss}|RNA2{StrandType:as}$	91
RNA1{r(C)p.r(U)p.r(C)p.m(U)p.r(G)p.r(G)p.r(C)p.r(C)p.r(U)p.r(U)p.r(U)p.r(C)p.r(U)p.r(C)p.r(U)p.r(C)p.m(U)p.r(A)p.r(G)p.r(T)p.r(T)}|RNA2{r(C)p.r(U)p.r(A)p.r(G)p.r(A)p.r(G)p.r(A)p.r(G)p.r(A)p.r(A)p.r(A)p.r(G)p.r(G)p.r(C)p.m(C)p.r(A)p.r(G)p.r(A)p.r(G)p.r(T)p.r(T)}$$$RNA1{StrandType:ss}|RNA2{StrandType:as}$	45
RNA1{r(G)p.r(G)p.r(G)p.r(A)p.r(A)p.r(A)p.r(C)p.r(U)p.r(G)p.r(A)p.r(A)p.r(A)p.r(G)p.r(G)p.r(C)p.[fl2r](U)p.r(A)p.r(U)p.r(G)p.r(T)p.r(T)}|RNA2{r(C)p.r(A)p.r(U)p.r(A)p.r(G)p.r(C)p.r(C)p.r(U)p.r(U)p.r(U)p.r(C)p.r(A)p.r(G)p.r(U)p.r(U)p.r(U)p.r(C)p.r(C)p.r(C)p.r(T)p.r(T)}$$$RNA1{StrandType:ss}|RNA2{StrandType:as}$	50
RNA1{r(G)p.r(A)p.r(C)p.r(G)p.r(U)p.r(A)p.r(A)p.r(A)p.r(C)p.r(G)p.r(G)p.r(C)p.r(C)p.r(A)p.r(C)p.r(A)p.r(A)p.r(G)p.r(U)p.r(U)p.r(T)}|RNA2{r(A)p.r(C)p.r(U)p.r(U)p.r(G)p.r(U)p.r(G)p.[hna](G)p.r(C)p.r(C)p.r(G)p.r(U)p.r(U)p.[hna](U)p.r(A)p.r(C)p.r(G)p.[hna](U)p.[hna](C)p.[hna](G)p.r(T)}$$$RNA1{StrandType:ss}|RNA2{StrandType:as}$	87
RNA1{r(G)p.r(U)p.r(A)p.r(U)p.r(G)p.r(A)p.r(C)p.r(C)p.r(G)p.r(A)p.r(C)p.r(U)p.r(A)p.r(C)p.r(G)p.r(C)p.r(G)p.r(U)p.r(A)p.r(T)p.r(T)}|RNA2{r(U)p.r(U)p.r(C)p.r(A)p.r(G)p.r(U)p.r(G)p.r(U)p.r(G)p.r(A)p.r(U)p.r(G)p.r(A)p.[una](C)p.r(A)p.r(C)p.r(U)p.r(U)p.r(G)p.r(T)p.r(T)}$$$RNA1{StrandType:ss}|RNA2{StrandType:as}$	64
RNA1{r(A)p.r(A)p.m(C)p.r(U)p.m(C)p.r(U)p.r(A)p.m(C)p.r(U)p.r(G)p.r(U)p.r(G)p.r(G)p.r(A)p.r(G)p.r(U)p.m(C)p.r(G)p.r(G)p.r(T)p.r(T)}|RNA2{m(C)p.m(C)p.r(G)p.r(A)p.m(C)p.r(U)p.m(C)p.m(C)p.r(A)p.m(C)p.r(A)p.r(G)p.r(U)p.r(A)p.r(G)p.r(A)p.r(G)p.r(U)p.r(U)p.r(T)p.r(T)}$$$RNA1{StrandType:ss}|RNA2{StrandType:as}$	57
RNA1{r(C)p.r(U)p.r(U)p.r(A)p.r(C)p.r(G)p.r(C)p.r(U)p.r(G)p.r(A)p.r(G)p.r(U)p.r(A)p.r(C)p.r(U)p.r(U)p.r(C)p.r(G)p.r(A)p.r(T)p.r(T)}|RNA2{r(U)p.r(C)p.r(G)p.r(A)p.r(A)p.r(G)p.r(U)p.r(A)p.r(C)p.r(U)p.r(C)p.r(A)p.r(G)p.r(C)p.r(G)p.r(U)p.r(A)p.r(A)p.r(G)p.[lna](T)p.[lna](T)}$$$RNA1{StrandType:ss}|RNA2{StrandType:as}$	93
RNA1{[s4r](C)p.[s4r](G)p.[s4r](U)p.[s4r](A)p.r(C)p.r(G)p.r(C)p.r(G)p.r(G)p.r(A)p.r(A)p.r(U)p.r(A)p.r(C)p.r(U)p.r(U)p.r(C)p.r(G)p.r(A)p.r(T)p.r(T)}|RNA2{r(U)p.r(C)p.r(G)p.r(A)p.r(A)p.r(G)p.r(U)p.r(A)p.r(U)p.r(U)p.r(C)p.r(C)p.r(G)p.r(C)p.r(G)p.[s4r](U)p.[s4r](A)p.[s4r](C)p.[s4r](G)p.r(T)p.r(T)}$$$RNA1{StrandType:ss}|RNA2{StrandType:as}$	86.1
